# Experimental data published in patent publication US20240226292A1, “METHODS AND COMPOSITIONS FOR TARGETING OF ANTIGENS AND OTHER POLYPEPTIDES TO FIRST RESPONDER DENDRITIC CELLS” (THE UNIVERSITY OF CHICAGO, priority 2021, published 2024).
# What was measured:
# FRs = assay: CD206 targeting peptide liposomes, FR targeting in BMDCs and splenocytes; format: cell-based, mouse; conditions: lipid-peptide in 200 nm liposomes at 1% total lipid, in combination with heparin or GFLSKSLVF
# Description: FIGS. 48A-48B. FR targeting peptides. A peptide targeting CD206 as described in a study by Ghebremedhin et al (Ghebremedhin A, Salam AB, Adu-Addai B, et al. Preprint. bioRxiv. 2020;2020.07.27.218115; incorporated herein by reference), having sequence RWKFGGFKWR (SEQ ID NO:2), was synthesized using the same lipid-peptide display technique as shown previously and incorporated into 200 nm liposomes at 1% total lipid. (FIG. 48A) 200K BMDCs were incubated with liposomes at either 1 or 10 uM total lipid concentration for 15 mins, then incubated with MP-TLR4 (200K) for 15 mins, washed and stained. The liposomal RFU is plotted for various formulations. MMR=CD206 targeting lipid at 1% total lipid, DAP12=DAP12 targeting lipid at 1% total lipid, Hep=heparin-lipid conjugate at 10% total lipid. (FIG. 48B) similar to part A, but using 2 million splenocytes and gating on all CD11c+ cells.
# (§1) Additional characterization and targeting of first responder dendritic cells (FRs) was performed.
# BMDCs = assay: Nocodazole treated BMDCs, MP uptake and % FRs by imagestream; format: cell-based, mouse; conditions: 10 nM Nocodazole for 20 hrs prior to MP treatment, versus NT
# Description: FIGS. 39A-39E. FRs are more likely actively dividing. (FIG. 39A) 1 million BMDCs were incubated with 1 million MP-TLR4 for 15 mins, washed and stain with Hoest for nuclear stain (0.1 ug/mL) and anti-CD11c antibody. […] (FIG. 39B) Graph of imagestream data from FIG. 39A from an N=3 showing that most BMDC FRs are in G2 phase. (FIG. 39C) 1 million BMDCs were similarly treated as in FIG. 39A, except some samples were treated with 10 nM Nocodazole for 20 hrs prior to MP-TLR4 treatment. NT=non-treated, Noco=Nocodazole treated. (FIG. 39D) Similar to FIG. 39C, BMDCs were treated with MP-TLR7 or Blank MPs (1:1 particles/cells) for 15 mins, then tested via imagestream. Total MP uptake per 100 k BMDCs were calculated for either NT or Noco treated samples. […] N=3, Error bars indicate +/−SD.
# [1] = Liposomes loaded with cell cycle blocking agents and FLA before OVA/CpG vaccination; format: in vivo, mice; conditions: liposomes i.p. day 1, 100 ug OVA/10 ug CpG day 2
# Description: FIGS. 42A-42D. […] Liposomes were loaded with two agents to block cell cycle (Cytoclastin D, CytoD, which blocks cells in G1 phase and Nocodozole, Noco, which blocks cells in G2 phase) as well as flagellin(FLA) as an TLR agonist. Mice were injected with 200 uL of 10 mM total lipid liposomes containing either (1) PBS only, Blank (2) FLA, 1 ug total per injection (3) FLA and 100 ug CytoD or (4) FLA+20 ug Noco. Mice were injected i.p with liposomes on day 1, then injected with 100 ug OVA/10 ug CpG (free formulation) on day 2 also i.p. Sera was collected via cheek bleed 1 hr after OVA/CpG injection. Mice were then sac'd on day 10 to observe anti-OVA Ig. Serum levels 1 h after injection for (FIG. 42A) IL-4, (FIG. 42B) MCP-1 and (FIG. 42C) TNF-a. (FIG. 42D) Total anti-OVA Ig on […]. N=5 mice per group.
# as §1
# PRG2 = target: T1, PRG2 (Homo sapiens, UniProt P13727); conditions: cited from earlier work
# T1 sequence (P13727 106-222): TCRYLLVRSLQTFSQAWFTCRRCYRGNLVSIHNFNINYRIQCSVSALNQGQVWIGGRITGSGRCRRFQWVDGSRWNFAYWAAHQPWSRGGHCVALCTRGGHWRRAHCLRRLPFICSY
# DAP12 = DAP12 (Homo sapiens, UniProt O43914); conditions: cited from earlier work
# DAP12, sequence (O43914 22-113, species assumed): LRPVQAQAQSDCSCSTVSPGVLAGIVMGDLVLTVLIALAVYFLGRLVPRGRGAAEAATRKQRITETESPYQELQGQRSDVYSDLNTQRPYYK
compound,measurement,setting,value
RWKFGGFKWR [peptide targeting CD206 as described by Ghebremedhin et al],identification and targeting of FRs,FRs,can identify and target FRs
"COC(=O)Nc1nc2cc(C(=O)c3cccs3)ccc2[nH]1 [Noco, Nocodazole]",total % of FRs,BMDCs,increases in FR population
C=C1[C@@H](C)[C@H]2[C@H](Cc3ccccc3)NC(=O)[C@]23[C@H](OC(C)=O)/C=C/[C@@](C)(O)C(=O)[C@@H](C)C/C=C/[C@H]3[C@@H]1O [Cytoclastin D],vaccine response,[1],increases vaccine response
heparin,affinity to PRG2,PRG2,moderate affinity
GFLSKSLVF,binding to DAP12,DAP12,selectively binding
